# Data reported in patent publication US9086390B2, “Dabigatran etexilate and related substances, processes and compositions, and use of the substances as reference standards and markers” (Medichem, S.A., priority 2011, dated 2015).
# Counter-ions that a name gives are not always drawn.
# Test: not given
# Conditions: cited from earlier work
row,Structure (SMILES),main hydrolysis product in vivo
1,"CCCCCCOC(=O)NC(=N)c1ccc(NCc2nc3cc(C(=O)N(CCC(=O)OCC)c4ccccn4)ccc3n2C)cc1 [dabigatran etexilate mesylate, reference compound]","a compound of formula (D1), namely dabigatran"

# Test: Accelerated stability study of dabigatran etexilate mesylate (impurity contents by HPLC method 1)
# Assay type: physicochemical
# Conditions: content of the named impurity in dabigatran etexilate mesylate of Example 6 after storage in a double polyethylene bag at 40° C. and 75% relative humidity for 3 months; HPLC method 1; area % with respect to dabigatran etexilate
# Description: The chromatographic separation was carried out in a Kromasil 100-5C18, 5 μm, 4.6×250 mm column at 25° C. The mobile phase was prepared by filtering and degassing an acetonitrile/buffer solution (45:55) v/v mixture. The buffer solution was obtained by preparing a 50 mM formic acid solution in water and adjusting the pH to 3.8 with ammonium hydroxide. The chromatograph was equipped with a 254 nm detector and the flow rate was 1.0 mL per minute. 20 μL of the test samples were injected. The samples were prepared by dissolving the appropriate amount of sample in mobile phase, to obtain a concentration of about 1.0 mg/mL. The chromatogram was run for at least 30 min. […] Impurity contents are expressed in area % with respect to dabigatran etexilate.
row,Compound/Impurity contents (area %) Example 7,Structure (SMILES)
1,1.64 area %,"Cn1c(CNc2ccc(C(=N)N)cc2)nc2cc(C(=O)N(CCC(=O)O)c3ccccn3)ccc21 [Compound (C1), 3-{[(2-{[(4-{carbamimidoyl}phenyl)amino]methyl}-1-methyl-1H-benzimidazol-5-yl)carbonyl](pyridin-2-yl)amino}propanoic acid, reference compound]"
2,1.57 area %,"CCCCCCOC(=O)/N=C(/N)c1ccc(NCc2nc3cc(C(=O)N(CCC(=O)O)c4ccccn4)ccc3n2C)cc1 [Compound (C2), 3-{[(2-{[(4-{[(hexyloxy)carbonyl]carbamimidoyl}phenyl)amino]methyl}-1-methyl-1H-benzimidazol-5-yl)carbonyl](pyridin-2-yl)amino}propanoic acid]"
3,0.71 area %,"CCCCCCOC(=O)/N=C(/N)c1ccc(NCc2nc3cc(C(=O)N(CCC(N)=O)c4ccccn4)ccc3n2C)cc1 [Compound (B4), 3-{[(2-{[(4-{[(hexyloxy)carbonyl]carbamimidoyl}phenyl)amino]methyl}-1-methyl-1H-benzimidazol-5-yl)carbonyl](pyridin-2-yl)amino}propanamide]"
4,7.62 area %,"CCCCCCOC(=O)NC(=O)c1ccc(NCc2nc3cc(C(=O)N(CCC(=O)OCC)c4ccccn4)ccc3n2C)cc1 [Compound (B3), ethyl 3-{[(2-{[(4-{[({hexyloxy}carbonyl)amino]carbonyl}phenyl)amino]methyl}-1-methyl-1H-benzimidazol-5-yl)carbonyl](pyridin-2-yl)amino}propanoate]"
5,0.42 area %,"CCCCCCOC(=O)/N=C(/N)c1ccc(NCc2nc3cc(C(=O)OCC)ccc3n2C)cc1 [Compound (A2), ethyl 2-{[(4-{[(hexyloxy)carbonyl]carbamimidoyl}phenyl)amino]methyl}-1-methyl-1H-benzimidazol-5-carboxylate]"
6,0.25 area %,"CCCCCCOC(=O)NC(=O)c1ccc(NCc2nc3cc(C(=O)N(CCC(=O)OC)c4ccccn4)ccc3n2C)cc1 [Compound (B2), methyl 3-{[(2-{[(4-{[({hexyloxy}carbonyl)amino]carbonyl}phenyl)amino]methyl}-1-methyl-1H-benzimidazol-5-yl)carbonyl](pyridin-2-yl)amino}propanoate]"
7,0.38 area %,"CCOC(=O)c1ccc2c(c1)nc(CNc1ccc(C(=N)N)cc1)n2C [Compound (A1), ethyl 2-{[(4-{carbamimidoyl}phenyl)amino]methyl}-1-methyl-1H-benzimidazol-5-carboxylate]"
8,0.18 area %,"CCCCCCOC(=O)/N=C(/N)c1ccc(N)cc1 [Compound (D), 4-{[(hexyloxy)carbonyl]carbamimidoyl}aniline]"
9,3.8 area %,"CCCCCCOC(=O)NC(=O)c1ccc(NCc2nc3cc(C(=O)N(CCC(=O)O)c4ccccn4)ccc3n2C)cc1 [Compound (B1), 3-{[(2-{[(4-{[({hexyloxy}carbonyl)amino]carbonyl}phenyl)amino]methyl}-1-methyl-1H-benzimidazol-5-yl)carbonyl](pyridin-2-yl)amino}propanoic acid]"
10,0.32 area %,"CCCCCCOC(=O)/N=C(/N)c1ccc(NCc2nc3cc(C(=O)N(CCC(=O)OC)c4ccccn4)ccc3n2C)cc1 [Compound (C3), methyl 3-{[(2-{[(4-{[(hexyloxy)carbonyl]carbamimidoyl}phenyl)amino]methyl}-1-methyl-1H-benzimidazol-5-yl)carbonyl](pyridin-2-yl)amino}propanoate]"

# Same assay, conditions: on storage, 40° C. and 75% relative humidity, moisture
row,Structure (SMILES),main hydrolysis product on storage
1,"CCCCCCOC(=O)NC(=N)c1ccc(NCc2nc3cc(C(=O)N(CCC(=O)OCC)c4ccccn4)ccc3n2C)cc1 [dabigatran etexilate mesylate, reference compound]","a compound of formula (B), especially compound (B3)"
